Measured values: ChEMBL document CHEMBL1921701, “Synthesis of GSK3β mimetic inhibitors of Akt featuring a novel extended dipeptide surrogate” (Bioorg Med Chem Lett, 2011)

Key:
[1] = biological target: T1, RAC-alpha serine/threonine-protein kinase (Homo sapiens, UniProt P31749); test: Inhibition of His-tagged ATP-binding domain of AKT1 assessed as GRPRTSSFAEG crosstide phosphorylation using [33P]ATP
[2] = biological target: T1, RAC-alpha serine/threonine-protein kinase; test: Inhibition of His-tagged ATP-binding domain of AKT1 assessed as residual activity by measuring GRPRTSSFAEG crosstide phosphorylation at 50 uM using [33P]ATP

T1 sequence (P31749 whole entry, the tested form may be a part): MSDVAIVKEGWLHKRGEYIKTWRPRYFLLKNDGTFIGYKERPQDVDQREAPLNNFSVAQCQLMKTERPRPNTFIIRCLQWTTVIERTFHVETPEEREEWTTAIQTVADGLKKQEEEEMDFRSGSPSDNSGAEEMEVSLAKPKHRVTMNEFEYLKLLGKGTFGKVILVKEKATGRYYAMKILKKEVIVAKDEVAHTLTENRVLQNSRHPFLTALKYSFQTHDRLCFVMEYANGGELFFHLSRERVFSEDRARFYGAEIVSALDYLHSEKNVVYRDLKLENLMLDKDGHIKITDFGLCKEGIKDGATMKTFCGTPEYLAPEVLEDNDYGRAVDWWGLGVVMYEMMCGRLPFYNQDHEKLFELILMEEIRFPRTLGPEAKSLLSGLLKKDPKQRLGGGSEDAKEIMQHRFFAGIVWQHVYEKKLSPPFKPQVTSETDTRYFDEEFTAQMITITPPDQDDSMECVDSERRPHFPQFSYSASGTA

Row | Compound | IC50 [1] [µM] | inhibition [1] | Activity [2] [%]
1 | CC(C)[C@H](NC(=O)[C@@H]1CC[C@H]2[C@H](NC(=O)CCCCN=C(N)N)COC(=O)N12)C(=O)NC(Cc1ccccc1)C(=O)NCc1ccccc1 (mixture of isomers) | 40.2 |  | 
2 | CC(C)[C@H](NC(=O)[C@@H]1CC[C@H]2[C@H](NC(=O)[C@H](CCCNC(=N)N)NC(=O)c3ccccc3)COC(=O)N12)C(=O)NC(Cc1ccccc1)C(=O)NCc1ccccc1 (mixture of isomers) | 16.3 | Dose-dependent effect | 14.6
3 | CC(C)[C@H](NC(=O)[C@@H]1CC[C@H]2[C@H](NC(=O)CCCCNC(=N)N)COC(=O)N12)C(=O)NC(Cc1ccccc1)C(=O)NCc1ccccc1 (mixture of isomers) |  | Dose-dependent effect | 21.1
4 | CC(C)[C@H](NC(=O)[C@@H]1CC[C@H]2[C@H](NC(=O)CNC(=N)N)COC(=O)N12)C(=O)NC(Cc1ccccc1)C(=O)NCc1ccccc1 (mixture of isomers) |  |  | 89.4

Now from value to molecule:

Row | IC50 [1] [µM] | inhibition [1] | Activity [2] [%] | Compound
5 | 15 |  |  | CC(C)[C@H](NC(=O)[C@@H]1CC[C@H]2[C@H](NC(=O)[C@H](CCCN=C(N)N)NC(=O)Cc3ccccc3)COC(=O)N12)C(=O)NC(Cc1ccccc1)C(=O)NCc1ccccc1 (mixture of isomers)
6 | 3.1 |  |  | CC(C)[C@H](NC(=O)[C@@H]1CC[C@H]2[C@H](NC(=O)[C@H](CCCN=C(N)N)NC(=O)OCc3ccccc3)COC(=O)N12)C(=O)NC(Cc1ccccc1)C(=O)NCc1ccccc1 (mixture of isomers)
7 |  | Dose-dependent effect | 16.8 | CC(C)[C@H](NC(=O)[C@@H]1CC[C@H]2[C@H](NC(=O)[C@H](CCCNC(=N)N)NC(=O)Cc3ccccc3)COC(=O)N12)C(=O)NC(Cc1ccccc1)C(=O)NCc1ccccc1 (mixture of isomers)
8 |  | Dose-dependent effect | 2.2 | CC(C)[C@H](NC(=O)[C@@H]1CC[C@H]2[C@H](NC(=O)[C@H](CCCNC(=N)N)NC(=O)OCc3ccccc3)COC(=O)N12)C(=O)NC(Cc1ccccc1)C(=O)NCc1ccccc1 (mixture of isomers)
